Experimental data from publication PMC9138090, “Study on the Neuroprotective, Radical-Scavenging and MAO-B Inhibiting Properties of New Benzimidazole Arylhydrazones as Potential Multi-Target Drugs for the Treatment of Parkinson’s Disease” (Antioxidants, 2022).
Entries after “also recorded” stand apart in the source; their conditions may differ.

Tests used:
rat brain synaptosomes [1] = assay: Synaptosomal viability (MTT), toxicity evaluation; format: cell-based; settings: concentrations < 250 µM (1 to 250 µM tested)
Description: (§1) Synaptosomes were prepared from brains of adult male Wistar rats. The brains were homogenized in 10 volume of cold buffer 1, containing 5 mM HEPES and 0.32 M sucrose (pH = 7.4). The brain homogenate was centrifuged twice at 1000× g for 5 min at 4 °C. The supernatant was collected and centrifuged 3 times at 10,000× g for 20 min at 4 °C. The pellet was re-suspended in ice-cold buffer 1. The synaptosomes were isolated by using Percoll reagent to prepare the gradient. Synaptosomes were re-suspended and incubated in buffer 2, containing 290 mM NaCl, 0.95 mM MgCl2 × 6H2O, 10 mM KCl, 2.4 mM CaCl2 × H2O, 2.1 mM NaH2PO4, 44 mM HEPES, and 13 mM D-glucose. Incubations were performed in a 5% CO2 + 95% O2 atmosphere. The content of synaptosomal protein was determined according to the method of Lowry et al. using bovine serum albumin as a standard.
(§2) Synaptosomal viability was measured by (3-(4,5)-dimethylthiazol-2-yl)-2,5-diphenyl tetrazolium bromide)-test, described by Mungarro-Menchaca et al. The synaptosomes were incubated with the compounds and then treated with (3-(4,5)-dimethylthiazol-2-yl)-2,5-diphenyl tetrazolium bromide) solution (0.5 mg/mL) for 1 h at 37 °C. After incubation they were centrifuged at 15,000× g for 1 min. The formed formazan crystals were dissolved in DMSO (Dimethyl sulfoxide). The extinction was measured spectrophotometrically at λ = 580 nm.
The low toxicity and substantial neuroprotective properties shown by some of the potential drug candidates in human neuroblastoma SH-SY5Y cells directed the experimental work to be elaborated on a different cellular in vitro model using freshly isolated rat brain synaptosomes for the evaluation of the protective effects and toxicity of selected promising compounds [56]. The rat brain synaptosomes represent a terminal part of the axons and contain synaptic vesicles, mitochondria, lysosomes, parts of the cell membrane, neurotransmitters, which diffuse across the synaptic cleft. Besides the presynaptic membrane, a part of postsynaptic membrane with the postsynaptic density is often attached to the nerve ending. In their experiments, Student and Edwards examined the subcellular localization of the A and B forms of MAO in rat brain. […] The authors conclude from the data that MAO-B activity is, indeed, associated with synaptosomes and may be non-uniformly located among different populations of synaptic endings. The functional-metabolic status of the synaptosomes was evaluated by measuring the synaptosomal viability (MTT assay) and the levels of reduced gluthathione (GSH) (Figure 2). […] At the highest used concentration (250 µM) a relative decrease in the synaptosomal viability and the levels of reduced glutathione was observed.

[2] = Superoxide scavenging, xanthine/xanthine oxidase NBT assay; format: biochemical; settings: for change in sample absorbance vs. controls (in words): whole tested concentration range
Description: Superoxide radicals scavenging activity (enzymatic assay): The assay comprises the preparation of 1 mL PBS samples containing the following substances: 1 mmol/l xanthine; 20 µL xanthine oxidase (100 IU/L); 0.04 mmol/L NBT; either the tested hydrazone or buffer for the controls. The samples were incubated at 37 °C and the absorbance was measured at 560 nm.
The results from both assays have been presented as a percentage of the control sample.
The potency of the compounds selected as the most promising from the cell model systems and hMAOB inhibitory studies was estimated against enzymatically (xanthine/XO system) and non-enzymatically (KO2/NBT) produced superoxide radicals (Figure 7). In the xanthine-xanthine oxidase system the generation of O2^−^● is a result of an enzymatic reaction. The molecular mechanism of action of the XO enzyme is associated with catalysation of the reaction of oxidation of hypoxanthine and xanthine and generation of uric acid. During the process of reoxidation of the enzyme, the molecular oxygen acts as an electron acceptor and the formation of physiologically important ROS, such as the superoxide radical (O2^−^●) and hydrogen peroxide (H2O2), has been observed. In the potassium superoxide-containing systems, superoxide radical generation is due to the direct addition of the KO2 to the water sample solution. The release of a superoxide anion was estimated via NBT reduction activity, indicating detectable superoxide anion levels. The application of these two alternative model systems will afford the possibility to perform a more accurate interpretation of the obtained results. Since in the enzyme-free model system, the release of the superoxide in the small sample volume is a very fast process, there is a risk of local effects that is avoided in the xanthine-xanthine oxidase system. The use of enzyme reaction provides a relatively slow generation of the superoxide radical and steady concentration.

rat brain synaptosomes [3] = assay: 6-OHDA-induced neurotoxicity, synaptosomal viability; format: cell-based; settings: for protective effect in 6-OHDA model (in words): 10 µM, synaptosomal viability and GSH level
Description: as §1, §2
The metabolism and oxidation of dopamine cause reactive oxygen radicals and reactive quinones to be produced, which could lead to neurotoxicity and neurodegeneration. The synaptosomes were incubated with the compounds (10 µM) for 30 min and then 6-hydroxydopamnine (150 mmol/L) was used to induce neurotoxicity. […] After 1 h, they were centrifuged on a microcentrifuge for 1 min at 15,000 rpm. The precipitates were gently mixed with buffer B and glucose and centrifuged for a second time at 15,000 rpm for 1 min. After the second wash, buffer B and glucose were added to the precipitates.
In the presented experiments, an in vitro assessment of the possible antioxidant and neuroprotective effects of the newly synthetized compounds was performed in a model of 6-OHDA induced toxicity in rat brain synaptosomes. 6-OHDA is a neurotoxicant that structurally resembles dopamine and can be used in different in vivo and in vitro models for neurotoxicity. This model resembles the histological, biochemical, and physiological characteristics of neurodegenerative diseases such as Parkinson’s and Alzheimer’s disease. […] However, their uptake into brain synaptosomes is similar among primates and rodents and they are suitable in vitro models for PD. The main mechanism of 6-OHDA toxicity includes induction of oxidative stress. It undergoes auto-oxidation or metabolic degradation to p-quinone and produces hydrogen peroxide, superoxide, and hydroxyl radicals. The process causes lipid peroxidation, protein oxidation, and DNA oxidation and finally results in oxidative stress and mitochondrial dysfunction. Rat brain synaptosomes were pretreated with compounds 3e, 3h, 3i, 3m, melatonin, and rasagiline (10 μM); after that, the samples were subjected to 6-OHDA (150 mmol/L, 1 h). The protective effects were evaluated by measurement of synaptosomal viability (MTT-test) and GSH levels (Figure 3).

rat brain synaptosomes [4] = assay: GSH level in isolated synaptosomes, toxicity evaluation; format: cell-based; settings: concentrations < 250 µM (1 to 250 µM tested)
Description: as §1
Following treatment with the tested compounds, the glutathione levels were determined using Ellman reagent (DTNB), which forms color complexes with the SH group at pH = 8, with maximum absorbance at 412 nm. The synaptosomes were centrifuged at 500× g for 1 min and the sediment was used to measure GSH level. The sediment was precipitated with 5% TCA, then centrifuged for 10 min at 4000× g and the GSH level in the supernatant was measured using DTNB spectrophotometrically at 412 nm. The biochemical parameters were determined by spectrophotometric methods using a Spectro UV-VIS Split spectrophotometer (LaboMed.Inc, Los Angeles, CA, USA).
The low toxicity and substantial neuroprotective properties shown by some of the potential drug candidates in human neuroblastoma SH-SY5Y cells directed the experimental work to be elaborated on a different cellular in vitro model using freshly isolated rat brain synaptosomes for the evaluation of the protective effects and toxicity of selected promising compounds [56]. The rat brain synaptosomes represent a terminal part of the axons and contain synaptic vesicles, mitochondria, lysosomes, parts of the cell membrane, neurotransmitters, which diffuse across the synaptic cleft. Besides the presynaptic membrane, a part of postsynaptic membrane with the postsynaptic density is often attached to the nerve ending. In their experiments, Student and Edwards examined the subcellular localization of the A and B forms of MAO in rat brain. […] The authors conclude from the data that MAO-B activity is, indeed, associated with synaptosomes and may be non-uniformly located among different populations of synaptic endings. The functional-metabolic status of the synaptosomes was evaluated by measuring the synaptosomal viability (MTT assay) and the levels of reduced gluthathione (GSH) (Figure 2). […]

Row | SMILES | effect on rat brain synaptosomes viability (rat brain synaptosomes [1]) | change in sample absorbance vs. controls (in words) [2] | protective effect in 6-OHDA model (in words) (rat brain synaptosomes [3]) | effect on level of GSH in synaptosomes (rat brain synaptosomes [4]) | melting point | % of the control ratio, NBT reduction ([2]; maximal tested concentration) | increase of synaptosomal viability vs. 6-OHDA treatment (rat brain synaptosomes [3]; 10 µM pretreatment, 6-OHDA 1 h) | decrease of NBT reduction ([2]; xanthine/xanthine oxidase assay)
1 | O=C(CCn1c(=S)n(CCC(=O)NN=Cc2ccccc2O)c2ccccc21)NN=Cc1ccccc1O [3e, 3,3′-(2-Thioxo-1H-benzo[d]imidazole-1,3(2H)-diyl)bis(N′-(2-hydroxybenzylidene)propanehydrazide)] | did not significantly reduce | did not induce statistically significant change | less pronounced protective effects | did not change | 272 to 273 °C | – | – | –
2 | O=C(CCn1c(=S)n(CCC(=O)NN=Cc2cccc(O)c2O)c2ccccc21)NN=Cc1cccc(O)c1O [3h, 3,3′-(2-Thioxo-1H-benzo[d]imidazole-1,3(2H)-diyl)bis(N′-(2,3-dihydroxybenzylidene)propanehydrazide)] | did not significantly reduce | – | – | did not significantly reduce; also recorded: did not change | 246 to 248 °C | 64% | 71% | –
3 | O=C(CCn1c(=S)n(CCC(=O)NN=Cc2ccc(O)cc2O)c2ccccc21)NN=Cc1ccc(O)cc1O [3i, 3,3′-(2-Thioxo-1H-benzo[d]imidazole-1,3(2H)-diyl)bis(N′-(2,4-dihydroxybenzylidene)propanehydrazide)] | did not significantly reduce | – | less pronounced protective effects | did not significantly reduce; also recorded: did not change | 254 to 256 °C | – | – | 15%
4 | COc1ccc(C=NNC(=O)CCn2c(=S)n(CCC(=O)NN=Cc3ccc(OC)cc3O)c3ccccc32)c(O)c1 [3m, 3,3′-(2-Thioxo-1H-benzo[d]imidazole-1,3(2H)-diyl)bis(N′-(2-hydroxy-4-methoxybenzylidene)propanehydrazide)] | did not significantly reduce | did not induce statistically significant change | less pronounced protective effects | did not change | 247 to 249 °C | – | – | –
